In publication PMC12281424, “A Rac-specific competitive inhibitor of guanine nucleotide binding reduces metastasis in triple-negative breast cancer” (Cell Reports Medicine, 2025):

Tests used:
[1] = system: RAC1-dependent membrane ruffle formation in NIH 3T3 cells; experiment: EGF-induced membrane ruffle formation; assay type: cell-based; details: EGF 10 ng/mL, inhibitors added 1 h prior; read-out: IC50, inhibition of ruffles formation
Protocol: Figure 2 Identification of a new RAC1 inhibitor (A) Effect of A41 and NSC23766 on ruffle formation (white arrows) induced by EGF (10 ng/mL) in NIH 3T3 cells in serum-free culture medium (CTL). Inhibitors were added at indicated concentration 1 h prior to EGF stimulation. To assess cytoskeleton organization, cells were incubated with Alexa Fluor 488 phalloidin to visualize F-actin. Results shown are representative of 3 independent experiments. Corresponding concentration-response curves have been established by counting the percentages of cells with ruffles (scale bars: 10 μm). (B) Immunoblot analysis and associated quantification of RAC-GTP level and total RAC expression in NIH 3T3 cells stimulated by EGF (10 ng/mL, 5 min) and pre-incubated or not (−) with NSC23766, A41, or A415 at 10^−5 M for 1 h (∗∗∗p < 0.001 vs. controls without EGF stimulation, ^###p < 0.001 vs. controls with EGF stimulation) (N > 3). […] (D) Representative in vitro nucleotide exchange catalyzed by the DH-PH of TIAM (10 nM) measured by the binding of fluorescent mant-GTP (1 μM) to RAC1 (0.5 μM, preloaded with GDP) in the presence of indicated concentrations of A41 (out of N = 6). […] (E) Kobs and Kmax were determined in each condition (N = 6). […]
After indicated treatments, cells were fixed with 4% paraformaldehyde and permeabilized in PBS 0.5% Triton X-100. […] Cancer cells were detected with firefly luciferase antibody (ab21176, Abcam) (dilution 1/500) overnight at room temperature, followed by secondary Alexa 488-labeled anti-rabbit antibody (dilution 1/1000). […] After staining, cells were mounted in Prolong gold antifade reagent with DAPI and images were captured by a fluorescence microscope. […]
Supp. […] For each molecule, druglikeness has been assessed according to Lipinski’s rules: molecular weight (MW)<500; high lipophilicity (LogP<5); less than 5 hydrogen bond donors (HBD); less than 10 hydrogen bond acceptors (HBA). The log P was calculated by using OSIRIS – Data Warrior software. […] IC50 was determined experimentally from the inhibition

TrkA(h) = TrkA(h) (Homo sapiens, UniProt P04629); experiment: Kinase Profiler; assay type: biochemical
Protocol: (§1) The kinase profiler was performed by the company Eurofins (Discovery, Panlab and Cerep).

PDHK4(h) = PDHK4(h) (Homo sapiens, UniProt Q16654); experiment: Kinase Profiler; assay type: biochemical
Protocol: (§2) Blood cell counts, kinase profiler, safety screen, bacterial cytotoxicity, Ames, micronucleus assays were performed by the company Eurofins (France). The kinase profiler was performed by the company Eurofins (Discovery, Panlab and Cerep).

SAPK2b(h) = SAPK2b(h) (Homo sapiens, UniProt Q15759); experiment: Kinase Profiler; assay type: biochemical
Protocol: as §1

Androgen (Testosterone) = Androgen (Testosterone) (Homo sapiens, UniProt P10275); experiment: Safety screen; assay type: binding
Protocol: as §2

PKCμ(h) = PKCμ(h) (Homo sapiens, UniProt Q15139); experiment: Kinase Profiler; assay type: biochemical
Protocol: as §1

FGFR1(V561M)(h) = FGFR1(V561M)(h) (Homo sapiens, UniProt P11362, V561M); experiment: Kinase Profiler; assay type: biochemical
Protocol: as §1

Pim-2(h) = Pim-2(h) (Homo sapiens, UniProt Q9P1W9); experiment: Kinase Profiler; assay type: biochemical
Protocol: as §2

CDKL1(h) = CDKL1(h) (Homo sapiens, UniProt Q00532); experiment: Kinase Profiler; assay type: biochemical
Protocol: as §1

Aurora-B(h) = Aurora-B(h) (Homo sapiens, UniProt Q96GD4); experiment: Kinase Profiler; assay type: biochemical
Protocol: as §2

Yes(h) = Yes(h) (Homo sapiens, UniProt P07947); experiment: Kinase Profiler; assay type: biochemical
Protocol: as §1

[2] = Ames fluctuation test (2nd group); assay type: cell-based
Source text: Data S3. Ames-fluctuation assay-A41.
Test Concentration Count Positive Significance Fisher Exact Test
(# of wells) (- to +++) (p-value)
Ames fluctuation test (TA100 + S9

Ret(V804M)(h) = Ret(V804M)(h) (Homo sapiens, UniProt P07949, V804M); experiment: Kinase Profiler; assay type: biochemical
Protocol: as §1

Aurora-C(h) = Aurora-C(h) (Homo sapiens, UniProt Q9UQB9); experiment: Kinase Profiler; assay type: biochemical
Protocol: as §2

SIK2(h) = SIK2(h) (Homo sapiens, UniProt Q9H0K1); experiment: Kinase Profiler; assay type: biochemical
Protocol: as §1

MAP4K4(h) = MAP4K4(h) (Homo sapiens, UniProt O95819); experiment: Kinase Profiler; assay type: biochemical
Protocol: as §1

DRAK1(h) = DRAK1(h) (Homo sapiens, UniProt Q9UEE5); experiment: Kinase Profiler; assay type: biochemical
Chain of DRAK1(h) (Q9UEE5 whole entry): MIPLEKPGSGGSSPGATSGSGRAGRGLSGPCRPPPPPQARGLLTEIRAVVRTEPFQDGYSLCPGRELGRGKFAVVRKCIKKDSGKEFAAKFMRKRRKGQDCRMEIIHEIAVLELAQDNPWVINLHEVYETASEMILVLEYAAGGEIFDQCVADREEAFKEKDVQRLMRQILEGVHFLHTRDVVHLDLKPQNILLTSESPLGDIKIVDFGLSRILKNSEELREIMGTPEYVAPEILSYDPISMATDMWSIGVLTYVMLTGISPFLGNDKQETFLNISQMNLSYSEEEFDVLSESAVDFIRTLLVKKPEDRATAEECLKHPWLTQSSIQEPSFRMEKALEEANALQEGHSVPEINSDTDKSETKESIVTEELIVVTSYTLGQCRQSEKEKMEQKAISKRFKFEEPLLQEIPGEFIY
Protocol: as §2

Chain of SAPK2b(h) (Q15759 whole entry): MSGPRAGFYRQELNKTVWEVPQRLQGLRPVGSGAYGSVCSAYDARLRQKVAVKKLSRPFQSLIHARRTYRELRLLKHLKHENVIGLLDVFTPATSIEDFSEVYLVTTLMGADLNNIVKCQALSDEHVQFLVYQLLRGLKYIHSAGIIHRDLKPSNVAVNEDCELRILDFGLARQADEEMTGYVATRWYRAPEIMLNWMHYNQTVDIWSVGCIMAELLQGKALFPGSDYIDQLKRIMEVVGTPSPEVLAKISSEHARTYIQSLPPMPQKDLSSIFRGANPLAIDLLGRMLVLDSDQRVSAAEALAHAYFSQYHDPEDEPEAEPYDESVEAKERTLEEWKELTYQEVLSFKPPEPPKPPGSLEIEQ
Chain of PDHK4(h) (Q16654 whole entry): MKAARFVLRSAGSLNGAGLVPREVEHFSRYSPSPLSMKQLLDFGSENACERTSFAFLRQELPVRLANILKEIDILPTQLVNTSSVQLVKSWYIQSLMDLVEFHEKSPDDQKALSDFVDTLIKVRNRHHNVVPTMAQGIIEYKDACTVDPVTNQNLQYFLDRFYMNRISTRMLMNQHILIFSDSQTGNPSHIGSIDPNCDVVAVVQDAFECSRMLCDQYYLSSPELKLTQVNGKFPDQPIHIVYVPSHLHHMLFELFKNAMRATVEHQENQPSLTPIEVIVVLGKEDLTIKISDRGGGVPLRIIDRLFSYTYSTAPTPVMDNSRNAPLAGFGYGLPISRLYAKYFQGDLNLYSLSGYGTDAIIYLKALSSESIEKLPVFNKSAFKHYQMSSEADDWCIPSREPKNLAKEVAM
Chain of TrkA(h) (P04629 33-796): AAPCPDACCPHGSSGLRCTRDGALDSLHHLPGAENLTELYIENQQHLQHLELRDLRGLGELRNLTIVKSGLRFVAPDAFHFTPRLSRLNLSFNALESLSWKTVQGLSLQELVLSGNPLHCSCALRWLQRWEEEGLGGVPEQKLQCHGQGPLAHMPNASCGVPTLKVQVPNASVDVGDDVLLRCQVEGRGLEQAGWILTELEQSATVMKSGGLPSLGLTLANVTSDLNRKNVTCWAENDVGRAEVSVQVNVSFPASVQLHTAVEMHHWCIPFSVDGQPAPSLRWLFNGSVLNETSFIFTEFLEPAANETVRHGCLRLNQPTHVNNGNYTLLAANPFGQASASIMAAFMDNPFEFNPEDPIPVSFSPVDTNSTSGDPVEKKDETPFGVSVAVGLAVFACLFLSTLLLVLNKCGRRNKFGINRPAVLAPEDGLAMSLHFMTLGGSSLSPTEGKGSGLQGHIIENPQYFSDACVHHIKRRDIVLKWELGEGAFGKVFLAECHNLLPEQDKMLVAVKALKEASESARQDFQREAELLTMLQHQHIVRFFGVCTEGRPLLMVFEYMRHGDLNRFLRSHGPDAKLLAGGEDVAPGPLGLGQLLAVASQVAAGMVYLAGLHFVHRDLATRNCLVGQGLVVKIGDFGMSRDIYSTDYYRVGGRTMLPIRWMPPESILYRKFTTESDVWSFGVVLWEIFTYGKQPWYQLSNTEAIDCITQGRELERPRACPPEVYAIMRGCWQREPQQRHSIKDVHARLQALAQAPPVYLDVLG
Chain of Androgen (Testosterone) (P10275 whole entry): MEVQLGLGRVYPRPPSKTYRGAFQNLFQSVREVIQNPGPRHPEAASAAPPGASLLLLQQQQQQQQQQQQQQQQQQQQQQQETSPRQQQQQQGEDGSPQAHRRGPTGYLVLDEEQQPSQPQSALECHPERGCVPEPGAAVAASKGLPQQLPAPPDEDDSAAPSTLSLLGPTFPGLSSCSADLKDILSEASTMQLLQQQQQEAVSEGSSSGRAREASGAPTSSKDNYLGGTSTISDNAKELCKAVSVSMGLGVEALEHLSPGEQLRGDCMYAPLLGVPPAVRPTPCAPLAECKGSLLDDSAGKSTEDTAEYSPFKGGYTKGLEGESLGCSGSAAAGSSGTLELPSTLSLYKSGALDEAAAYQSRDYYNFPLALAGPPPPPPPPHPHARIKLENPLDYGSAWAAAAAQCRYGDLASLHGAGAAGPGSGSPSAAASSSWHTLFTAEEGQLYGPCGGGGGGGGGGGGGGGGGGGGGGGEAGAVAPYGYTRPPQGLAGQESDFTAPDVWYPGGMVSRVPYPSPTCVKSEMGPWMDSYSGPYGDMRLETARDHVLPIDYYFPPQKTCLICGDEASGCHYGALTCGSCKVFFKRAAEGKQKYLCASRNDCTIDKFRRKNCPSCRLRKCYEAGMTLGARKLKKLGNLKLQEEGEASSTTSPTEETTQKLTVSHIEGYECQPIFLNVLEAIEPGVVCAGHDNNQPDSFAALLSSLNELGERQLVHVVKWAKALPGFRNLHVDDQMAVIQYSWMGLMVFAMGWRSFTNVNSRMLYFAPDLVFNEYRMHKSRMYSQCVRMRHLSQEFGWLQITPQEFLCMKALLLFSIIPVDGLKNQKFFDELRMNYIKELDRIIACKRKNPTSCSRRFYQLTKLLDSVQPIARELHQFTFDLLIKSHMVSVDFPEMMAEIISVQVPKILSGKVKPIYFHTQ
Chain of SIK2(h) (Q9H0K1 whole entry): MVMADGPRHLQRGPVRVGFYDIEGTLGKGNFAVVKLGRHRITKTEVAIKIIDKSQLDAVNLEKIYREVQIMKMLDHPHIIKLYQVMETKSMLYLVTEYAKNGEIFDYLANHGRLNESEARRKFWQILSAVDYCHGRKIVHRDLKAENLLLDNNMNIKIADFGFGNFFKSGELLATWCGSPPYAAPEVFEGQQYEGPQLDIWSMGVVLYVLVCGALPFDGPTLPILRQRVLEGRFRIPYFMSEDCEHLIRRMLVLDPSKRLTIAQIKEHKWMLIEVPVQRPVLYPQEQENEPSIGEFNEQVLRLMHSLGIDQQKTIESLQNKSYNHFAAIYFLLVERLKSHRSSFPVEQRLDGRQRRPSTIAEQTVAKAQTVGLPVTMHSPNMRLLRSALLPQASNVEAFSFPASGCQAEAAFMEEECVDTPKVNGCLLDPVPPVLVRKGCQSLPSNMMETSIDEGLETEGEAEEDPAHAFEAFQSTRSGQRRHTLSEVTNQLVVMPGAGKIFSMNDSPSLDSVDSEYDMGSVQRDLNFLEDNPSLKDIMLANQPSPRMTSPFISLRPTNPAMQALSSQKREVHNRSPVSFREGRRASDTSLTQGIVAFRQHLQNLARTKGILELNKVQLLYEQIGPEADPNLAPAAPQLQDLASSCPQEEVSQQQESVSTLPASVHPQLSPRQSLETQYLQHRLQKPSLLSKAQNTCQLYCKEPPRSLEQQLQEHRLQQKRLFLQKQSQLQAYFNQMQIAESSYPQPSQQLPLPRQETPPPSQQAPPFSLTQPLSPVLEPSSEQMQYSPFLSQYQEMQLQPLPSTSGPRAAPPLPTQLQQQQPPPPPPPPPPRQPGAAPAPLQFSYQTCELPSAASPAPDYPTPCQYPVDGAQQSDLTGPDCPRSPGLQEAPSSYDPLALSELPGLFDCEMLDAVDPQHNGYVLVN
Chain of PKCμ(h) (Q15139 whole entry): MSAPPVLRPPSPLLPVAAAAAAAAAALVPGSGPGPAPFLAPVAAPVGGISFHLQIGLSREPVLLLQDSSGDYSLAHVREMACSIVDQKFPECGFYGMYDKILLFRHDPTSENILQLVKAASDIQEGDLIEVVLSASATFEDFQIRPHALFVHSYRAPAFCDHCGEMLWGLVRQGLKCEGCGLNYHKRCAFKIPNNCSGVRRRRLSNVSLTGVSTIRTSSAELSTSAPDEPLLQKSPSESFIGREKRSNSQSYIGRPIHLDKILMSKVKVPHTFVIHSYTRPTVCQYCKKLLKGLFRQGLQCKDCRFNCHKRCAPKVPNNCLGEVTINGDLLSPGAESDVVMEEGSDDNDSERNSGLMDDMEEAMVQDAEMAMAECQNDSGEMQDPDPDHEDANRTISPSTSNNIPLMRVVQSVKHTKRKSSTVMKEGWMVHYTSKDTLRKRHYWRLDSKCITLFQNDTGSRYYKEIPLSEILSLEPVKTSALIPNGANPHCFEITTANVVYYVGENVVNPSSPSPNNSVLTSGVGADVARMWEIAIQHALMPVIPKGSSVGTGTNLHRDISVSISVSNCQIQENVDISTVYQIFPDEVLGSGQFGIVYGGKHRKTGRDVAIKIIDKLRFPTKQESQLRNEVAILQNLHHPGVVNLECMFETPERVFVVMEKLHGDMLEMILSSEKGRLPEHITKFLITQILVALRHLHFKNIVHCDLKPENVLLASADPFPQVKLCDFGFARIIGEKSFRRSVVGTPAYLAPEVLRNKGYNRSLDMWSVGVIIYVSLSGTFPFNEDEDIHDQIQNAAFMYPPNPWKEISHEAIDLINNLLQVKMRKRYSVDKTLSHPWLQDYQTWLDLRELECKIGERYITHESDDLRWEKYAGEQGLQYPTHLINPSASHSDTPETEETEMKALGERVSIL
Chain of Pim-2(h) (Q9P1W9 whole entry): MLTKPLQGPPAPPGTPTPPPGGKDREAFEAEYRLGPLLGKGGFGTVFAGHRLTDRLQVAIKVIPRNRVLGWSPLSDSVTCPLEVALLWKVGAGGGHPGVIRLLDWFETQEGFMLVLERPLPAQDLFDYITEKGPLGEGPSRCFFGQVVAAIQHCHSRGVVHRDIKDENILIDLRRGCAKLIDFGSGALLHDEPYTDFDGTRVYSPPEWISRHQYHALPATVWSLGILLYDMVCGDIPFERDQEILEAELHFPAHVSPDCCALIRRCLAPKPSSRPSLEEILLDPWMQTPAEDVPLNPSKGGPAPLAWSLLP

COc1ccc(OC)c(NS(=O)(=O)c2ccc(NC(=O)CCSc3ccc(C)cc3)cc2)c1 [Compound A41]
IC50 [1]: 2.5 nM
Activity(%) (TrkA(h)): 99%
Activity(%) (PDHK4(h)): 93%
Activity(%) (SAPK2b(h)): 107%
% inh. (Androgen (Testosterone)): 10%
Activity(%) (PKCμ(h)): 104%
Activity(%) (FGFR1(V561M)(h)): 129%
Activity(%) (Pim-2(h)): 110%
Activity(%) (CDKL1(h)): 105%
Activity(%) (Aurora-B(h)): 86%
Activity(%) (Yes(h)): 110%
Count Positive (# of wells) ([2]; 1.0E-04 M): 0
Count Positive (# of wells) ([2]; 1.0E-05 M): 1
Count Positive (# of wells) ([2]; 5.0E-05 M): 0
Count Positive (# of wells) ([2]; 5.0E-06 M): 3
Activity(%) (Ret(V804M)(h)): 106%
Activity(%) (Aurora-C(h)): 100%
Activity(%) (SIK2(h)): 90%
Activity(%) (MAP4K4(h)): 107%
Activity(%) (DRAK1(h)): 101%
